Structures can show the parent of a compound that is named as a salt. Where two headings read alike, the source gives them in different places.
Tests used:
[1] = test system: LTB4 production in human whole blood (LTA4 hydrolase); assay: LTB4 production by calcium ionophore stimulated human blood; assay type: cell-based; settings: read-out: Inhibition of Calcium Ionophore-Induced LTB4 Production in Human Blood IC50 HWB
Procedure: LTB4 and Thromboxane Production by Calcium Ionophore Stimulated Human Blood for LTA4 Hydrolase Inhibitor Activity
One or more concentrations of the leukotriene A4 hydrolase inhibitor compounds being tested were prepared (diluted in DMSO) and 2 μl added and gently mixed with the diluted whole blood. After incubating for 15 minutes at 37° C. in a humidified incubator, calcium ionophore A23187 (Sigma Chemical Co., St. Louis, Mo.) was added to a final concentration of 20 mcg/ml and the incubation continued under the same conditions for an additional 10 minutes to allow LTB4 formation. The reaction was terminated by centrifugation (833 g, 10 minutes at 4° C.) and supernatant were analyzed for LTB4 and thromboxane by commercially available enzyme-linked immunoassays (Caymen Chemical Co., Ann Arbor, Mich.) according to the manufacturer's instructions. The IC50 of each test compound was determined from the amount of inhibition of LTB4 production as compared to an essentially identical assay in which no inhibitor compound was present.

[2] = molecular target: T1, recombinant human LTA4 hydrolase (rhLTA4H) (Homo sapiens, UniProt P09960); assay: Recombinant human LTA4 hydrolase assay for LTA4 hydrolase inhibitor activity
T1 sequence (P09960 1-611): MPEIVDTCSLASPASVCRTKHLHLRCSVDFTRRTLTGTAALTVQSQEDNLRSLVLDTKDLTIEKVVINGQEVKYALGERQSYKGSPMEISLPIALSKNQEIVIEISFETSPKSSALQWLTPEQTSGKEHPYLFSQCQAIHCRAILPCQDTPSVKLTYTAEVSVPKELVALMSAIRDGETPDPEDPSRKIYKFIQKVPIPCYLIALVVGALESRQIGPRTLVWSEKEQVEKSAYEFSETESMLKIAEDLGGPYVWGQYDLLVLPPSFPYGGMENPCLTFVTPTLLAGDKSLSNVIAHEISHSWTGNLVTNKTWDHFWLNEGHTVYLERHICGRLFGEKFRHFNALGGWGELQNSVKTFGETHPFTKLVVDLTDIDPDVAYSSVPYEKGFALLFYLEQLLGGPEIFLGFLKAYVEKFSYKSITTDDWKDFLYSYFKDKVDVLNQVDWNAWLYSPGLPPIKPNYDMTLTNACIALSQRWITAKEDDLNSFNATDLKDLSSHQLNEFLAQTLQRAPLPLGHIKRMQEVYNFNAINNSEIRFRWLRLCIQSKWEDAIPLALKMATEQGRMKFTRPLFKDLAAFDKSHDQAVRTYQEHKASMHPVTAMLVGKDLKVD
Procedure: One or more predetermined amounts of a compound of the invention were incubated in assay buffer (0.1 M potassium phosphate, 5 mg/ml fatty acid free BSA, 10% DMSO, pH 7.4) for 10 minutes at room temperature with 250 ng of recombinant hLTA4H to allow binding, if any, between the enzyme and inhibitor. The stock enzyme solution was 1 mg/ml LTA4 hydrolase, 50 mM Tris, pH 8.0, 150 mM NaCl, 2.5 mM beta-mercaptoethanol, 50% glycerol. […] Each reaction was carried out at room temperature for 10 minutes. The reaction was stopped by diluting 25 μl of the reaction mixture with 500 μl of the assay buffer without DMSO. LTB4 was quantified in the diluted sample by a commercially available enzyme-linked immunoassay [Caymen Chemical Co., Ann Arbor, Mich.] using the method recommended in the manufacturer's instructions and compared to the amount of LTB4 produced in a negative control (i.e., essentially identical conditions except without addition of an inhibitor compound). The IC50 was routinely calculated from the data produced.

[3] = test system: LTB4 production in mouse blood (LTA4 hydrolase); assay: Ex vivo LTB4 production by calcium ionophore stimulated mouse blood after oral dosing; assay type: in vivo
Procedure: Ex Vivo LTB4 and Thromboxane Production by Calcium Ionophore Stimulated Mouse Blood for LTA4 Hydrolase Inhibitor Activity
Leukotriene A4 hydrolase inhibitor compounds of the present invention were diluted to a predetermined concentration in phosphate buffered saline containing 2% DMSO and 1% Tween 80. The compounds were administered by oral gavage to adult male outbred mice weighing approximately 20-30 gm at a dose of 10 mg/kg body weight. (Compounds given at a dose of 50 mg/kg body weight are designtated in following Table by the symbol, *.) Sixty (60) minutes after administration of an LTA4 inhibitor compound of the invention, blood was collected (into heparin-containing tubes) from the retroorbital sinus. […] The mixture was incubated for 10 minutes at 37° C. in a humidified incubator. The reaction was terminated by centrifugation (833 g, 10 minutes at 4° C.). Supernatants were analyzed for LTB4 and thromboxane by commercially available enzyme-linked immunoassays (Caymen Chemical Co., Ann Arbor, Mich.] in accordance with the manufacturer's instructions. The percent inhibition was determined by comparison to animals treated identically except that the solution admininstered by oral gavage was devoid of inhibitor compound.

[4] = Recombinant Human LTA4 Hydrolase Assay IC50 LTA4H, recombinant hLTA4H
[5] = Mus musculus, po, 1 h; read-out: Murine Ex Vivo LTB4 Inhibition % I LTB4
[6] = Homo sapiens, human whole blood, A23187
[7] = mouse, oral gavage, 1 hour after administration of 10 mg/kg; read-out: Murine Ex Vivo LTB4 Inhibition % I LTB4

| IC50 [2, 4] [nM] | IC50 [1, 6] [nM] | SMILES | inhibition in vivo at 10 mg/kg [3, 7] [%] | also measured |
| --- | --- | --- | --- | --- |
|  |  | c1ccc(Cc2ccc(OCCN3CCCC3)cc2)cc1 [Example 45, 1-[2-(4-phenylmethyl)phenoxyethyl]pyrrolidine] |  | IC50 ([1]; human whole blood, A23187): 116 nM; inhibition in vivo at 10 mg/kg [3, 5]: 35% |
|  | 1500 | C(=C\c1ccc(OCCN2CCCC2)cc1)/c1ccccc1 [Example 46, 1-[2-[4-(2-phenylethenyl)phenoxy]ethyl]pyrrolidine] | 13 |  |
|  | 3500 | c1ccc(Cc2cnc(OCCN3CCCC3)s2)cc1 [Example 76] |  |  |
|  | 2010 | Clc1cc(Cc2ccccc2)ccc1OCCN1CCCC1 [Example 113] |  |  |
|  | 190 | Fc1cc(Cc2ccccc2)ccc1OCCN1CCCC1 [Example 115] |  |  |
|  | 1090 | Fc1cc(OCCN2CCCC2)ccc1Cc1ccccc1 [Example 116] | 18 |  |
|  | 2480 | COc1cccc(Cc2ccc(OCCN3CCCC3)cc2)c1 [Example 127] |  |  |
|  | 890 | COc1ccc(Cc2ccc(OCCN3CCCC3)cc2)cc1 [Example 128] | 74 |  |
|  | 1010 | Clc1ccc(Cc2ccc(OCCN3CCCC3)cc2)cc1 [Example 140] | 15 |  |
|  |  | COC(=O)[C@@H]1CCCN1CCOc1ccc(Cc2ccccc2)cc1 [Example 225, Methyl 1-[2-[4-(Phenylmethyl)phenoxy]ethyl]-2S-pyrrolidine-2-carboxylate, monohydrochloride, hydrate] |  | IC50 ([1]; Homo sapiens): 1860 nM |
|  |  | CC(=O)NC1CCN(CCOc2ccc(Cc3ccccc3)cc2)C1 (stereo not shown) [Example 227] |  | IC50 ([1]; human whole blood, A23187): 420 nM; Murine Ex Vivo LTB4 Inhibition % I LTB4 ([3]; mouse, oral gavage, 1 hour after administration of 10 mg/kg): 23% |
|  | 180 | CC(=O)NC1CCN(CCOc2ccc(Cc3ccccc3)cc2)CC1 [Example 238] | 49 |  |
|  | 420 | CC(=O)NC1CCN(CCOc2ccc(Cc3ccccc3)cc2)C1 (stereo not shown) [Example 256] | 23 |  |
|  | 1100 | CCOC(=O)CNCCCOc1ccc(Cc2ccccc2)cc1 [Example 264] |  | inhibition in vivo at 50 mg/kg ([3]; mouse, oral gavage, 1 hour after administration of 50 mg/kg (*); read-out: Murine Ex Vivo LTB4 Inhibition % I LTB4): 87% |
|  | 76 | CCOC(=O)CCNCCCCOc1ccc(Cc2ccccc2)cc1 [Example 272] | 97 |  |
|  | 354 | CCOC(=O)CNCCCCOc1ccc(Cc2ccccc2)cc1 [Example 320] | 85 |  |
|  | 421 | CCOC(=O)CNCCCCCOc1ccc(Cc2ccccc2)cc1 [Example 321] | 87 |  |
|  | 586 | COC(=O)CCNCCOc1ccc(Cc2ccccc2)cc1 [Example 324] | 62 |  |
|  | 95 | COC(=O)CCN(C)CCCOc1ccc(Cc2cccs2)cc1 [Example 331] | 97 |  |
| 140 |  | OCC1CCCN1CCOc1ccc(Cc2ccccc2)cc1 (stereo not shown) [Example 385] | 32 |  |
|  |  | c1ccc(Cc2ccc(OCCN3CCCCCC3)cc2)cc1 [Example 397] |  | IC50 ([1]; Homo sapiens): 120 nM; IC50 ([2]; read-out: Recombinant Human LTA4 Hydrolase Assay IC50 LTA4H): 37 nM |

| IC50 [2, 4] [nM] | IC50 [1, 6] [nM] | SMILES | inhibition in vivo at 10 mg/kg [3, 7] [%] | also measured |
| --- | --- | --- | --- | --- |
| 100 |  | CC1CCC(C)N1CCOc1ccc(Cc2ccccc2)cc1 (stereo not shown) [Example 399] | 30 |  |
| 1750 |  | CC(CN1CCCCCC1)Oc1ccc(Cc2ccccc2)cc1 (stereo not shown) [Example 404] | 52 |  |
| 420 |  | CCC(CN1CCCC1)Oc1ccc(Cc2ccccc2)cc1 (stereo not shown) [Example 405] | 49 |  |
| 500 |  | c1ccc(Cc2ccc(OC(Cc3ccccc3)CN3CCCC3)cc2)cc1 (stereo not shown) [Example 406] | 46 |  |
| 20000 |  | C#CC(CC(=O)OCC)NCCCOc1ccc(Cc2ccccc2)cc1 (stereo not shown) [Example 407] | 0 |  |
| 43 |  | COC(=O)CCN(C)CCCOc1ccc(Cc2ccccc2)cc1 [Example 413] | 86 |  |
| 410 |  | CC(C)(O)CCNCCCOc1ccc(Cc2ccccc2)cc1 [Example 416] | 31 |  |
| 47 |  | NNC(=O)C1CCN(CCOc2ccc(Cc3ccccc3)cc2)CC1 [Example 419] | 90 |  |
| 100 |  | CNC(=O)CCNCCCOc1ccc(Cc2ccccc2)cc1 [Example 422] | 37 |  |
| 370 | 580 | O=C(CCNCCCOc1ccc(Cc2ccccc2)cc1)N1CCOCC1 [Example 424] |  |  |
|  | 360 | NC(=O)C1CCN(CCOc2ccc(Cc3ccccc3)cc2)C1 (stereo not shown) [Example 425] | 60 |  |
| 350 |  | NC(=O)C1(O)CCN(CCOc2ccc(Cc3ccccc3)cc2)CC1 [Example 427] | 68 |  |
| 500 |  | O=C(Nc1ccccc1)OC[C@@H]1CCCN1CCOc1ccc(Cc2ccccc2)cc1 [Example 428] | 2 |  |
| 140 |  | CC(CN(C)CCCOc1ccc(Cc2ccccc2)cc1)C(=O)O (stereo not shown) [Example 432] | 85 |  |
| 35 |  | N/C(=N\O)C1CCN(CC2Cc3cc(Cc4ccccc4)ccc3O2)CC1 (stereo not shown) [Example 446] | 70 |  |
| 820 | 825 | O=c1[nH]c(C2CCCN(CCOc3ccc(Cc4ccccc4)cc3)C2)no1 (stereo not shown) [Example 448] |  |  |
| 6 |  | CC1CC(c2nnn[nH]2)CCN1CCOc1ccc(Cc2ccccc2)cc1 (stereo not shown) [Example 451] | 90 |  |
| 11 |  | NC1CCN(CCOc2ccc(Cc3ccccc3)cc2)CC1 [Example 455] | 67 |  |
| 240 |  | c1ccc(Cc2ccc(OCCN3CC4CCC3C4)cc2)cc1 (stereo not shown) [Example 499] | 60 |  |
| 140 |  | c1ccc(Cc2ccc(OCCN3CC4CCC3CC4)cc2)cc1 [Example 500] | 53 |  |

| SMILES | IC50 [2, 4] [nM] | IC50 [1, 6] [nM] | inhibition in vivo at 10 mg/kg [3, 7] [%] | also measured |
| --- | --- | --- | --- | --- |
| c1ccc(Cc2ccc3c(c2)CC(Cn2cnc4ccncc42)O3)cc1 (stereo not shown) [358 A] | 1550 |  |  | IC50 ([1]; human whole blood, A23187): 152 nM |
| COC(=O)C1CCCN1CCOc1ccc(Cc2ccccc2)cc1 (stereo not shown) [Example 237] | 450 |  |  | IC50 ([1]; Homo sapiens): 1860 nM |
| CCOC(=O)CC1CCN(CCOc2ccc(Oc3ccccc3)cc2)CC1 [Example 300] | 5000 |  |  | IC50 ([1]; human whole blood, A23187): 2510 nM |
| CCOC(=O)C1C2CN(CCOc3ccc(Cc4ccccc4)cc3)CC21 (stereo not shown) [Example 325] | 20000 |  |  | IC50 ([1]; human whole blood, A23187): 2400 nM |
| COC(=O)CCN(C)CCCOc1ccc(Cc2ccccc2)s1 [Example 375] | 900 |  |  | inhibition in vivo at 10 mg/kg [3, 5]: 67% |
| OC1CCN(CCOc2ccc(Cc3ccccc3)cc2)C1 (stereo not shown) [Example 386] | 32 |  |  | inhibition in vivo at 10 mg/kg ([3]; Mus musculus, po, 1 h, read-out: Murine Ex Vivo LTB4 Inhibition % I LTB4): 51% |
| O=C(O)C1CCN(CCOc2ccc(Cc3ccccc3)cc2)CC1 [Example 429] | 250 |  |  | inhibition in vivo at 10 mg/kg [3, 5]: 80% |
| O=C(O)C1C2CN(CCOc3ccc(Cc4ccccc4)cc3)CC21 (stereo not shown) [Example 435] | 225 |  |  | IC50 ([1]; human whole blood, A23187): 86 nM |
| O=C(O)C1CCN(CCOc2ccc(Cc3cccs3)cc2)CC1 [Example 437] | 113 |  |  | IC50 ([1]; human whole blood, A23187): 693 nM |
| O=C(CCl)NC1CCN(CCOc2ccc(Cc3ccccc3)cc2)C1 (stereo not shown) [Example 454] | 140 |  |  | IC50 ([1]; human whole blood, A23187): 610 nM |
